From PubChem BioAssay (NCI)
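Cells were grown in 96-well plates and exposed to each compound for 48 hours at five concentrations; endpoints were interpolated linearly between bracketing concentrations, or set to the highest concentration if not reached. Definition used: TGI = concentration required for complete inhibition of growth.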 Where a SMILES comes first, the peptide text is derived from it. [ ]: non-standard residue; d: D form. The star is where a group is joined. Phe(4-NO2) = N[CH](Cc1ccc([N+](=O)[O-])cc1)C(=O)O; Boc = CC(C)(C)OC(=O)*

Columns and labels:
Assay in all cases: NCI-60 cell line screen, 48 h
A498 renal = tested on: A498 renal
DU-145 prostate = tested on: DU-145 prostate
HCT-15 colon = tested on: HCT-15 colon
IGROV1 ovarian = tested on: IGROV1 ovarian
KM12 colon = tested on: KM12 colon
MALME-3M melanoma = tested on: MALME-3M melanoma
MCF7 breast = tested on: MCF7 breast
MDA-MB-231 breast = tested on: MDA-MB-231 breast
NCI-H226 lung = tested on: NCI-H226 lung
NCI-H23 lung = tested on: NCI-H23 lung
NCI-H522 lung = tested on: NCI-H522 lung
OVCAR-4 ovarian = tested on: OVCAR-4 ovarian
PC-3 prostate = tested on: PC-3 prostate
SK-MEL-2 melanoma = tested on: SK-MEL-2 melanoma
SK-OV-3 ovarian = tested on: SK-OV-3 ovarian
SN12C renal = tested on: SN12C renal
SNB-75 CNS = tested on: SNB-75 CNS
U251 CNS = tested on: U251 CNS
LOX IMVI melanoma = tested on: LOX IMVI melanoma

| Structure (SMILES) | TGI (A498 renal) [µM] | TGI (DU-145 prostate) [µM] | TGI (HCT-15 colon) [µM] | TGI (IGROV1 ovarian) [µM] | TGI (KM12 colon) [µM] | TGI (MALME-3M melanoma) [µM] | TGI (MCF7 breast) [µM] | TGI (MDA-MB-231 breast) [µM] | TGI (NCI-H226 lung) [µM] | TGI (NCI-H23 lung) [µM] | TGI (NCI-H522 lung) [µM] | TGI (OVCAR-4 ovarian) [µM] | TGI (PC-3 prostate) [µM] | TGI (SK-MEL-2 melanoma) [µM] | TGI (SK-OV-3 ovarian) [µM] | TGI (SN12C renal) [µM] | TGI (SNB-75 CNS) [µM] | TGI (U251 CNS) [µM] | TGI (LOX IMVI melanoma) [µM] |
| --- | --- | --- | --- | --- | --- | --- | --- | --- | --- | --- | --- | --- | --- | --- | --- | --- | --- | --- | --- |
| COc1ccc2c(c1)CCc1c-2n(CCN2CCOCC2)c2ccc(OC)cc12 | > 100 | > 100 | > 100 | > 100 | > 100 | > 100 | > 100 | > 100 | > 100 | > 100 | > 100 | > 100 | > 100 | > 100 | > 100 | > 100 | > 100 | > 100 |  |
| CC1OC(OCC2OC(Oc3ccc(C4CC(=O)c5c(O)cc(O)cc5O4)cc3O)C(O)C(O)C2O)C(O)C(O)C1O (configuration not stated) | > 100 | > 100 | > 100 | > 100 | > 100 | > 100 | > 100 | > 100 | > 100 | > 100 | > 100 | > 100 | > 100 | > 100 | > 100 | > 100 | > 100 | > 100 | > 100 |
| O=C(NNC(=O)c1ccccc1O)c1ccco1 | > 100 | > 100 | > 100 | > 100 | > 100 | > 100 | > 100 | > 100 | > 100 |  | > 100 | > 100 | > 100 | > 100 | > 100 | > 100 | > 100 | > 100 | > 100 |
| c1ccc2c3nnc(c2c1)SCCCSc1nnc(c2ccccc12)SCCCS3 | > 100 | > 100 | > 100 | > 100 | > 100 | 72.1 | > 100 | 48.6 | 56.6 | > 100 | > 100 | 54.3 | > 100 | > 100 | > 100 | > 100 | 50.3 | > 100 | > 100 |
| CC(C)NC(=O)OCc1c(COC(=O)NC(C)C)c(-c2cc[n+](COC(=O)C(C)C)cc2)n2c1CCC2 | 35.9 | > 100 | > 100 | > 100 | > 100 | > 100 | > 100 | > 100 | > 100 | > 100 | > 100 | > 100 | > 100 | > 100 | > 100 | > 100 | > 100 | > 100 | > 100 |
| CC(=O)Oc1ccc(/C=C/C(=O)OCCOC(=O)/C=C/c2ccc(OC(C)=O)c(OC(C)=O)c2)cc1OC(C)=O | 52.5 | 28.6 | 33.8 | 10.7 | 22.1 | 30.1 | 28.6 | 52.4 | 41.5 | 18.7 | 17 | 28.4 | 58.8 | 55.6 | 35 | 69 | 22.5 | 22.1 | 16.3 |
| CCCCCC(=Nc1n[nH]nc1C(N)=O)OCC | > 100 | > 100 | > 100 | > 100 | > 100 | > 100 | > 100 | > 100 | > 100 | > 100 | > 100 | > 100 | > 100 | > 100 | > 100 | > 100 | > 100 | > 100 | > 100 |
| CSc1nc(Br)nc2ncn(C3CC(Oc4ccc(C)cc4)C(COc4ccc(C)cc4)O3)c12 (configuration not stated) | > 100 | > 100 | > 100 | > 100 | > 100 | > 100 | > 100 | > 100 | > 100 | > 100 | > 100 | > 100 | > 100 | > 100 | > 100 | > 100 | > 100 | > 100 | > 100 |
| CCc1ccc(/C=C/C(=O)C2CN(CC)CCC2(O)/C=C/c2ccc(CC)cc2)cc1 (configuration not stated) | 23.1 | 21.6 | 8.27 | 4.35 | 3.5 | 20 | 7.34 | 5.07 | 20.1 | 11.5 | 4.79 | 14.7 | 12.4 | 18.7 | 25 | 14.1 | 21.6 | 3.41 | 2.9 |
| Cn1ccoc1=Nc1ccc(Cl)c(Cl)c1 | > 10 | > 10 | > 10 | > 10 | > 10 | > 10 | > 10 | > 10 | > 10 | > 10 | > 10 | > 10 | > 10 |  | > 10 | > 10 | > 10 | > 10 | > 10 |
| CC(C)(C)OC(=O)NC(CS(=O)(=O)O)C(=O)O (configuration not stated) | > 100 | > 100 | > 100 | > 100 | > 100 | > 100 | > 100 | > 100 | > 100 | > 100 | > 100 | > 100 | > 100 | > 100 | > 100 | > 100 | > 100 | > 100 | > 100 |
| COCCOC1=C(Cl)C(=O)c2c(O)ccc(O)c2C1=O | 22.2 | 13.2 | 3.32 | 6.27 | 26.8 | 2.17 | 3.04 | 3.2 | 28.9 | 9.54 | 1.67 | 4.34 | 13 | 14.5 | 30.7 | 4.04 | 13.9 | 12.1 | 3.28 |
| COC(=O)[C@@H]1COC(C(C)(C)C)N1C(=O)C(c1ccccc1)c1ccccc1 (some centres not stated) | > 100 | > 100 | > 100 | > 100 | > 100 | > 100 | > 100 | 81.8 | > 100 | > 100 | > 100 | > 100 | > 100 | > 100 | 88.4 | > 100 | > 100 | > 100 | 52.1 |
| Nc1nnc2oc3ccc4ccccc4c3cc1-2 | 71.8 | > 100 | > 100 | > 100 | > 100 | 89.8 | > 100 | 97.1 | 80.7 | > 100 | > 100 | > 100 | > 100 | 72.5 | > 100 | 87 | 81 | > 100 | > 100 |
| CCOC(=O)CC(=O)CSc1c(-c2ccccc2)c(=O)n(-c2ccccc2)c(=S)n1-c1ccccc1 | > 100 | > 100 | > 100 | > 100 | > 100 | > 100 | > 100 | > 100 | > 100 | > 100 | > 100 | > 100 | > 100 |  | > 100 | > 100 | > 100 | > 100 | > 100 |
| CNc1ncnc2c1cnn2CCCCO | > 100 | > 100 | > 100 | > 100 |  | > 100 | > 100 | > 100 | > 100 | > 100 | > 100 | > 100 | > 100 | > 100 | > 100 | > 100 |  | > 100 | > 100 |
| CCOC(=O)C(NC(=O)c1ccccc1)(Nc1ccc(S(=O)(=O)Nc2cc(C)nc(C)n2)cc1)C(F)(F)F (configuration not stated) | > 100 | > 100 | > 100 | > 100 | > 100 | > 100 | > 100 | > 100 | > 100 | > 100 | > 100 | > 100 | > 100 | > 100 |  | > 100 | > 100 | > 100 | > 100 |
| O=C(NCCCNCCCCNCCCNC(=O)c1cc(-c2ccccc2)nc2ccccc12)c1cc(-c2ccccc2)nc2ccccc12 | 47.5 | > 59.1 | 44.1 | 5.35 |  | 4.01 | 3.78 | > 100 |  | > 24.1 | 5.64 | > 24.8 | 4.33 |  | 4.85 | 7.88 |  |  | 3.12 |
| N#CCC1(c2ccc(Cl)cc2)NC(=O)c2ccccc21 (configuration not stated) | > 100 | > 100 | > 100 | > 100 | > 100 | > 100 | > 100 | > 100 | > 100 | > 100 | > 100 | > 100 | > 100 | > 100 | > 100 | > 100 | > 100 | > 100 | > 100 |
| O=C(Nc1ncc([N+](=O)[O-])s1)c1ccccc1O | > 100 | > 89.4 | > 86.9 | > 100 | 68.7 | 77.2 | > 100 | > 77.5 | 27.1 | > 70.5 | 28.3 | > 100 | > 94.7 | 35.6 | > 100 | 77.7 | > 70.8 | > 100 | > 100 |
| COc1ccc(C(=C2C(=O)N(c3ccccc3)C(=O)C2=C(C)C)c2ccc(OC)cc2)cc1 | 16 | > 58 | > 32.5 | > 36.6 | > 54.4 | > 100 | > 45.4 | > 35.4 | > 54 | > 39.4 | 15.7 | > 29.3 | > 40.1 | > 42.3 | > 56.1 | > 38.2 | > 43.6 | > 46.1 | > 31.3 |
| COC(=O)N/N=C(\c1ccccc1)c1ccc(OC)cc1 | > 100 | > 100 | > 100 | > 100 | > 100 | > 100 | > 100 | > 100 | > 100 | > 100 | > 100 | > 100 | > 100 | > 100 | > 100 | > 100 | > 100 | > 100 | > 100 |
| Nc1c(Br)cc(-c2nc3ccccc3s2)cc1Br | > 100 | > 100 | > 100 | > 100 | > 100 | > 100 | > 100 | > 100 | > 100 |  | > 100 |  | > 100 | > 100 | > 100 | > 100 | > 100 | > 100 |  |
| NCCNCCCNC(=O)c1cc(-c2ccccc2)nc2ccccc12 | > 100 | > 100 | > 100 | > 100 | > 100 | 30.8 | > 100 | > 100 | > 100 | > 100 | 37.6 |  | > 100 | 42.7 | > 100 | > 100 |  | 36.6 | > 100 |
| COC(=O)CCC(NC(=O)OC(C)(C)C)C(=O)NC(Cc1ccc([N+](=O)[O-])cc1)C(=O)NC(CCC(=O)OC)C(=O)OC (configuration not stated) (Boc-Glu(OMe)-[Phe(4-NO2)]-Glu(OMe)-OMe; configuration not given here) | > 100 | > 100 | > 100 | > 100 | > 100 | > 100 | > 100 | > 100 | > 100 | > 100 | > 100 | > 100 | > 100 | > 100 | > 100 | > 100 | 80.9 |  | 80.2 |
